Results reported in PMC10215804, “Exploring Alternative Pathways to Target Bacterial Type II Topoisomerases Using NBTI Antibacterials: Beyond Halogen-Bonding Interactions” (Antibiotics, 2023).
Values after ≈ are worked out from the molar mass of the structure shown. Where two headings read alike, the source gives them in different places.

Experiments:
[1] = biological target: T1, human topoisomerase IIα (Homo sapiens, UniProt P11388); details: residual activity at 100 µM compound; cited from earlier work
T1 construct: purchased Inspiralis (Norwich, UK)

[2] = system: MRSA(QA-12.1); set-up: method as in PMID 35970069; details: cited from earlier work
[3] = biological target: T2, E. coli DNA gyrase (Escherichia coli, UniProt P0AES4); details: supercoiling inhibition; cited from earlier work
T2 construct: purchased Inspiralis (Norwich, UK)
T2 sequence (P0AES4 whole entry): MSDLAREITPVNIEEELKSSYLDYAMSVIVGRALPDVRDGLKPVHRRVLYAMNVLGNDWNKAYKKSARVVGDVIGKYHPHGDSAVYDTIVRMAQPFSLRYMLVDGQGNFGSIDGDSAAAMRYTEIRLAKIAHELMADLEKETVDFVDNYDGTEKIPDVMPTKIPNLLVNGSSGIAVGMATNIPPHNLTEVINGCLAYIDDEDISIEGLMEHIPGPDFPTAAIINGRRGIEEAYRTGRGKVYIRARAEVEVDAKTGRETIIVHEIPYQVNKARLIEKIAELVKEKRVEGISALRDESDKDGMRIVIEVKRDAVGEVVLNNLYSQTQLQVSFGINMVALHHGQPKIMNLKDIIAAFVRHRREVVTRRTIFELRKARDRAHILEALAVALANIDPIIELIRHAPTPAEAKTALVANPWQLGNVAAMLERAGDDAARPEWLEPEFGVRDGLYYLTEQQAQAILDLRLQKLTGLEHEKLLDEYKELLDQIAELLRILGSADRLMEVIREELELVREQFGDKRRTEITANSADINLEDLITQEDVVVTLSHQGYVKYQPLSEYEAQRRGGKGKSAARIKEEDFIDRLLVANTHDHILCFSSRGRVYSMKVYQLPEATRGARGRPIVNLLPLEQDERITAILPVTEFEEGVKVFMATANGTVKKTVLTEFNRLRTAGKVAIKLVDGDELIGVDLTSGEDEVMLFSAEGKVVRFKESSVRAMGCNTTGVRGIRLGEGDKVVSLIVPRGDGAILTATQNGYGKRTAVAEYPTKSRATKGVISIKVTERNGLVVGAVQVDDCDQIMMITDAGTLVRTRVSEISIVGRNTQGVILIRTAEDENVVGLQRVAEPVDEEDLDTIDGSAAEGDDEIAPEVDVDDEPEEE

[4] = biological target: T3, E. coli topoIV (Escherichia coli, UniProt P0AFI2); details: relaxation inhibition; cited from earlier work
T3 construct: purchased Inspiralis (Norwich, UK)
T3 sequence (P20083 whole entry): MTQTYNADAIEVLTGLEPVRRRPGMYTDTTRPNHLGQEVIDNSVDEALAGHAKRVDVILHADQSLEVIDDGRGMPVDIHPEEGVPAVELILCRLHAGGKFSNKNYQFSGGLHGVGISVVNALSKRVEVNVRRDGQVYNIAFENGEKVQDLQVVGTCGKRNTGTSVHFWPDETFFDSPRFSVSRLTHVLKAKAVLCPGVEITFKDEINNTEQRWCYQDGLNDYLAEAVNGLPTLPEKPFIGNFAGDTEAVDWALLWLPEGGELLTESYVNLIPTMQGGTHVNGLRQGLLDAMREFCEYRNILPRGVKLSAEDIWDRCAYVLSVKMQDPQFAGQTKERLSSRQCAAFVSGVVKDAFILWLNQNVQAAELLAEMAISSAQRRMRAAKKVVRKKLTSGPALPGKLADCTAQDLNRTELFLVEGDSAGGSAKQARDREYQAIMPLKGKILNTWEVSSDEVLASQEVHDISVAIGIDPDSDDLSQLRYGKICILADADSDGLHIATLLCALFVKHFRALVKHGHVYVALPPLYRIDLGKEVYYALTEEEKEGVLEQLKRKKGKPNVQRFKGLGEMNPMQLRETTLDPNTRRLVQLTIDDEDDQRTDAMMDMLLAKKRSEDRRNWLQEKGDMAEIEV
T3 sequence (P0AFI2 whole entry): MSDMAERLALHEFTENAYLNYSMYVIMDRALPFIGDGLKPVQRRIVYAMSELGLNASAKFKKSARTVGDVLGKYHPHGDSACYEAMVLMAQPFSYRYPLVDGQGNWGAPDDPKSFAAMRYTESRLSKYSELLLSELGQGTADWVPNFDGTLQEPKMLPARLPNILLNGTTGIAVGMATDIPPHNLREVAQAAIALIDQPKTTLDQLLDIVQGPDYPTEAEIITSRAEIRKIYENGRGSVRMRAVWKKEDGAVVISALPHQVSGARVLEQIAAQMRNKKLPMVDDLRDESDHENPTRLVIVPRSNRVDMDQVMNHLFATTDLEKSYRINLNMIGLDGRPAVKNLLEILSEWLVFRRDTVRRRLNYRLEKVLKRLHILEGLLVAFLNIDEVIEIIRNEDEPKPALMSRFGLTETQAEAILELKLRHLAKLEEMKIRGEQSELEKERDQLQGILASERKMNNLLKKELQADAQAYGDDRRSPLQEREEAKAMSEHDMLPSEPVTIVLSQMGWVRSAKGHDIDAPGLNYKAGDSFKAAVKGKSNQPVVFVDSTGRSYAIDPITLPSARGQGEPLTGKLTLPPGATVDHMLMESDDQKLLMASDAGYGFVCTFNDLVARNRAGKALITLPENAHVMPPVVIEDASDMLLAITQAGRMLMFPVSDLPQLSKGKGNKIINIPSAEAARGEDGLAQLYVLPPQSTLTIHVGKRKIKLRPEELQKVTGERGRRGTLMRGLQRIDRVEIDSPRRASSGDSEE

[5] = system: MRSA (QA-11.2); set-up: method as in PMID 35970069; details: cited from earlier work
[6] = system: S. aureus (ATCC 29213); details: cited from earlier work
[7] = system: E. coli D22; details: lpxC mutation; cited from earlier work
[8] = system: E. coli N43 (CGSC# 5583); details: AcrA knockout; cited from earlier work
[9] = system: E. coli ESBL QA-11.3; set-up: method as in PMID 35970069; details: cited from earlier work
[10] = system: VRE; details: cited from earlier work
[11] = biological target: T4, S. aureus DNA gyrase (Staphylococcus aureus, UniProt P20831); details: supercoiling inhibition; cited from earlier work
T4 construct: purchased Inspiralis (Norwich, UK)

[12] = system: MRSA (QA-11.7); details: cited from earlier work
[13] = system: E. coli (ATCC 25922); details: cited from earlier work
[14] = biological target: T5, S. aureus topoIV (Staphylococcus aureus, UniProt P0C1U9); details: relaxation inhibition; cited from earlier work
T5 construct: purchased Inspiralis (Norwich, UK)
T5 sequence (P0C1U9 whole entry): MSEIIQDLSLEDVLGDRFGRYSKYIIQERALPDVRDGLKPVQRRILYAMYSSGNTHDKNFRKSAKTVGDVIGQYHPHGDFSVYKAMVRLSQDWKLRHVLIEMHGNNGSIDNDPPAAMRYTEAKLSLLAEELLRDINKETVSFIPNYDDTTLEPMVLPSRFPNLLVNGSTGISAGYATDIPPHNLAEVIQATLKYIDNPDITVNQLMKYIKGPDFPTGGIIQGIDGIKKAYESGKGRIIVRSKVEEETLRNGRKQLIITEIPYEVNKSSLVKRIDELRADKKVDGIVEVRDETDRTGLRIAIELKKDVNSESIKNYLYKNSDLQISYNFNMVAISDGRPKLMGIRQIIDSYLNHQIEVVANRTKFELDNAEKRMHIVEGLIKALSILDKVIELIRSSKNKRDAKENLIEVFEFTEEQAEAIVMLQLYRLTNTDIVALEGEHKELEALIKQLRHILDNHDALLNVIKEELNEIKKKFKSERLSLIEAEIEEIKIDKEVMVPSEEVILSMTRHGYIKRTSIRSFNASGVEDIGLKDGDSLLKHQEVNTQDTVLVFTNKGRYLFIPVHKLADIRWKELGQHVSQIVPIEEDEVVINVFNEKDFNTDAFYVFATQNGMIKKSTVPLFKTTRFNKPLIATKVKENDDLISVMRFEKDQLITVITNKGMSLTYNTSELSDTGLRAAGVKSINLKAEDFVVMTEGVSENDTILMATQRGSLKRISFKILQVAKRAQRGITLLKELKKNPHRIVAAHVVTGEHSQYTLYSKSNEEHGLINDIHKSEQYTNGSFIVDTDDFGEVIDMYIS
T5 sequence (P0C1S7 whole entry partner): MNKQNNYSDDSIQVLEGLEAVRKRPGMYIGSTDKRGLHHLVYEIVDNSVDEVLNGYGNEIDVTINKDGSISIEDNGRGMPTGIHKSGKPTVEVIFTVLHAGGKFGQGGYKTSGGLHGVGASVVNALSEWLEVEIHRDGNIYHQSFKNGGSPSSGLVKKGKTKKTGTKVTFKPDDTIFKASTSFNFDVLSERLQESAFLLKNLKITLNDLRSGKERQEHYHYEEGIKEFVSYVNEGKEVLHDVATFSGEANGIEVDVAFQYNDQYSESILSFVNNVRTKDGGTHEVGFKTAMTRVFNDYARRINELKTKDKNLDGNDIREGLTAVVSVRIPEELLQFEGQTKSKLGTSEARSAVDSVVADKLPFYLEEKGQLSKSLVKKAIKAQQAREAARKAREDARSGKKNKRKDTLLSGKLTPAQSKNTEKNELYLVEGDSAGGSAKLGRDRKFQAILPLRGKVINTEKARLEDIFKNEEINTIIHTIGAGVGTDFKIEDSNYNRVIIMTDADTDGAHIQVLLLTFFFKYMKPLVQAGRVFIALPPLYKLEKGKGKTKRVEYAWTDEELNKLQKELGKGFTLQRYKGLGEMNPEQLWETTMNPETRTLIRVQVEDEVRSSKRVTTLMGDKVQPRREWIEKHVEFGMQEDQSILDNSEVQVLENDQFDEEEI

[15] = system: A. baumannii; set-up: method as in PMID 35970069; details: cited from earlier work
[16] = system: E. faecalis RDK 057; details: cited from earlier work
[17] = system: K. pneumoniae; set-up: method as in PMID 35970069; details: cited from earlier work
[18] = system: P. aeruginosa RDK 184; details: cited from earlier work
[19] = system: P. aeruginosa RDK 184; assay: MIC, broth microdilution; format: cell-based; details: Pseudomonas aeruginosa
Method: (§1) For the determination of minimum inhibitory concentrations (MIC), the broth microdilution method was used in 96-well plate format, according to the guidelines of the Clinical and Laboratory Standards Institute and the recommendations of the European Committee on Antimicrobial Susceptibility Testing (EUCAST). The dilutions of the bacterial suspension of the specific bacterial strain, corresponding to the 0.5 McFarland turbidity standard, were prepared with […] Mueller–Hinton broth with TES (Thermo Fisher Scientific) to obtain an end inoculum of 10^5 CFU/mL. The compounds were dissolved in DMSO and mixed with the inoculum. […] The MIC was determined as the lowest concentration of antibiotic that prevented visible bacterial growth. Tetracycline was used as a positive control on each test plate.

[20] = system: E. faecalis RDK 057; assay: MIC, broth microdilution; format: cell-based; details: Enterococcus faecalis, RDK057
Method: as §1

[21] = system: E. coli N43 (CGSC# 5583); assay: MIC, broth microdilution; format: cell-based; details: Escherichia coli
Method: as §1

[22] = system: A. baumannii; assay: MIC, broth microdilution; format: cell-based; details: Acinetobacter baumannii
Method: as §1

[23] = system: E. coli (ATCC 25922); assay: MIC, broth microdilution; format: cell-based; details: Escherichia coli, ATCC25922
Method: as §1

[24] = system: K. pneumoniae; assay: MIC, broth microdilution; format: cell-based; details: Klebsiella pneumoniae
Method: as §1

[25] = system: E. coli ESBL QA-11.3; assay: MIC, broth microdilution; format: cell-based; details: Escherichia coli, ESBLQA11.3
Method: as §1

[26] = system: VRE; assay: MIC, broth microdilution; format: cell-based; details: Enterococcus
Method: as §1

[27] = system: S. aureus (ATCC 29213); assay: MIC, broth microdilution; format: cell-based; details: Staphylococcus aureus, ATCC29213
Method: as §1

[28] = system: E. coli D22; assay: MIC, broth microdilution; format: cell-based; details: Escherichia coli, D22
Method: as §1

[29] = biological target: T1, human topoisomerase IIα; assay: human topoisomerase II alpha relaxation high-throughput assay (selectivity); format: biochemical; details: residual activity at 100 µM compound; mean ± SD, two independent experiments; read-out: Human TopoIIα (% RA at 100 µM)
Method: For selectivity determination, a human topoisomerase II alpha relaxation high-throughput assay was used. The assay kits and black streptavidin-coated 96-well microtiter plates are available from Inspiralis (Norwich, UK). Two independent measurements were performed with an inhibitory concentration of 100 µM. Raw data were calculated as the mean ± SD percentage of the residual enzyme activity.

[30] = biological target: T4, S. aureus DNA gyrase; assay: biochemical; details: supercoiling inhibition; mean of two independent measurements ± SD
Method: (§2) To determine the IC50 values of the compounds for S. aureus and E. coli, a DNA gyrase supercoiling high-throughput plate assay and a topoIV relaxation high-throughput plate assay were performed. Assay kits and black streptavidin-coated 96-well microtiter plates are available from Inspiralis (Norwich, UK). For pre-screening, an inhibitor concentration of 100 μM was used. […] A nonlinear regression-based fit of the inhibition curves was used, with the log [inhibitor] versus slope of the reaction variables (four parameters) and a symmetric equation. […] To determine IC50 values, two independent repetitions were performed and the average was calculated.

[31] = biological target: T5, S. aureus topoIV; assay: biochemical; details: relaxation inhibition; mean of two independent measurements ± SD
Method: as §2

[32] = Metabolic activity assessment (cytotoxicity), CellTiter 96 Aqueous One; format: cell-based; details: human, HepG2 cells (ATCC HB-8065); 72 h treatment; means of three independent measurements ± SD
Method: HUVEC (ATCC® CRL-1730™) and HepG2 (ATCC® HB-8065™) cell lines were cultured in Dulbecco’s Modified Eagle Medium (DMEM; Sigma-Aldrich, St. Louis, MO, USA) supplemented with 10% heat-deactivated FBS (Gibco, Grand Island, NE, USA), 2 mM L-glutamine, 100 U/mL penicillin, 100 μg/mL streptomycin (all from Sigma-Aldrich, St. Louis, MO, USA) in a humidified chamber at 37 °C and 5% CO2. The experiments were carried out on passages 4–7 for both cell lines. The tested compounds were dissolved in DMSO and further diluted in culture medium to a desired final concentration. The cells were then seeded into 96-well plates at 5 × 10^4 cells/mL (100 μL/well) or 8 × 10^4 cells/mL (100 μL/well) for HUVEC and HepG2, respectively. The cells were then incubated for 24 h to allow attachment onto the wells. The cells were treated with 1 μM and 50 μM of each compound of interest, or the corresponding vehicle as control. […] Their metabolic activity was assessed after 72 h treatment using a CellTiter 96 Aqueous One Solution Cell Proliferation Assay (Promega, Madison, WI, USA), in accordance with the manufacturer’s instructions. The absorbance was measured at 492 nm on an automated microplate reader, Tecan Spark (Tecan Group Ltd., Männedorf, CH, Switzerland). Data are presented as the percentage of metabolic activity of control cells stimulated with vehicle, or as an IC50 value (mean ± SD) from three independent experiments, each conducted in triplicate (for screening) or duplicate (for IC50 determination). IC50 values were calculated using a non-linear regression model and with Graph Pad Prism 9 software.

[33] = biological target: T3, E. coli topoIV; assay: topoIV relaxation inhibition assay (high-throughput plate assay); format: biochemical
Method: as §2

[34] = system: MRSA (QA-11.2); assay: MIC, broth microdilution; format: cell-based, S. aureus; details: Staphylococcus aureus
Method: as §1

[35] = system: MRSA (QA-11.7); assay: MIC, broth microdilution; format: cell-based, S. aureus; details: Staphylococcus aureus
Method: as §1

[36] = system: MRSA(QA-12.1); assay: MIC, broth microdilution; format: cell-based, S. aureus; details: Staphylococcus aureus
Method: as §1

[37] = biological target: T2, E. coli DNA gyrase; assay: DNA gyrase supercoiling inhibition assay (high-throughput plate assay); format: biochemical
Method: as §2

SMILES: COc1ccc2nccc(OC[C@H]3CC[C@H](NCc4ccc(Br)cc4)CO3)c2n1 [Compound 3]
- Human TopoIIα (% RA at 100 µM) [1]: 105 ± 1%
- MIC MRSA(QA-12.1) [2]: 0.125 µg/mL (≈ 0.273 µM)
- IC50 [3]: 7740 ± 2310 nM
- IC50 [4]: 131 ± 40 nM
- MIC MRSA (QA-11.2) [5]: 0.25 µg/mL (≈ 0.545 µM)
- MIC S. aureus (ATCC 29213) [6]: 0.125 µg/mL (≈ 0.273 µM)
- MIC E. coli D22 [7]: 8 µg/mL (≈ 17.5 µM)
- MIC E. coli N43 (CGSC# 5583) [8]: 8 µg/mL (≈ 17.5 µM)
- MIC E. coli ESBL QA-11.3 [9]: >128 µg/mL
- MIC VRE [10]: 1 µg/mL (≈ 2.18 µM)
- IC50 [11]: 294 ± 100 nM
- MIC MRSA (QA-11.7) [12]: 0.5 µg/mL (≈ 1.09 µM)
- MIC E. coli (ATCC 25922) [13]: 128 µg/mL (≈ 279 µM)
- IC50 [14]: > 100000 nM
- MIC A. baumannii [15]: >128 µg/mL
- MIC E. faecalis RDK 057 [16]: 2 µg/mL (≈ 4.36 µM)
- MIC K. pneumoniae [17]: 128 µg/mL (≈ 279 µM)
- MIC P. aeruginosa RDK 184 [18]: 128 µg/mL (≈ 279 µM)

SMILES: COc1ccc2nccc(CCN3CCC(NCc4ccc(Br)c(C(F)(F)F)c4)CC3)c2n1 [Compound 12, N-(4-Bromo-3-(trifluoromethyl)benzyl)-1-(2-(6-methoxy-1,5-naphthyridin-4-yl)ethyl)piperidin-4-amine]
- MIC ([19]; RDK184, 20 h, Table S3, read-out: MIC (μM) P. aeruginosa RDK 184): > 328 µM
- MIC ([19]; RDK184, read-out: MIC P. aeruginosa RDK 184): > 128 µg/mL
- MIC ([20]; Table S3, read-out: MIC (μM) E. faecalis DRK 057): 1.28 µM
- MIC ([20]; read-out: MIC E. faecalis RDK 057): 0.5 µg/mL
- MIC ([21]; read-out: MIC (μM) E. coli N43): 0.161 µM
- MIC ([21]; read-out: MIC E. coli N43 (CGSC# 5583)): 0.063 µg/mL
- MIC ([22]; Table S3, read-out: MIC (μM) A. baumannii): 5.12 µM
- MIC ([22]; read-out: MIC A. baumannii): 2 µg/mL
- MIC ([23]; Table S3, read-out: MIC (μM) E. coli (ATCC 25922)): 10.2 µM
- MIC ([23]; read-out: MIC E. coli (ATCC 25922)): 4 µg/mL
- MIC ([24]; Table S3, read-out: MIC (μM) K. pneumoniae): 41 µM
- MIC ([24]; read-out: MIC K. pneumoniae): 16 µg/mL
- MIC ([25]; Table S3, read-out: MIC (μM) E. coli ESBL QA:11.3): 10.2 µM
- MIC ([25]; read-out: MIC E. coli ESBL QA-11.3): 4 µg/mL
- MIC ([26]; Table S3, read-out: MIC (μM) VRE): 0.64 µM
- MIC ([26]; read-out: MIC VRE): 0.25 µg/mL
- MIC ([27]; Table S3, read-out: MIC (μM) S. aureus (ATCC 29213)): 0.082 µM
- MIC ([27]; read-out: MIC S. aureus (ATCC 29213)): 0.032 µg/mL
- MIC ([28]; Table S3, lpxC mutation, read-out: MIC (μM) E. coli D22): 0.64 µM
- MIC ([28]; lpxC mutation that increases membrane permeability, read-out: MIC E. coli D22): 0.25 µg/mL
- remaining activity at 100 µM [29]: 102%
- IC50 [30]: 62 nM
- IC50 [31]: 345 ± 25 nM
- IC50 at 72 h [32]: 12000 ± 1860 nM
- IC50 [33]: 23 ± 6 nM
- MIC ([34]; read-out: MIC (μM) MRSA (QA-11.2)): 0.161 µM
- MIC ([34]; read-out: MIC MRSA (QA-11.2)): 0.063 µg/mL
- MIC ([35]; read-out: MIC (μM) MRSA (QA-11.7)): 0.161 µM
- MIC ([35]; strain resistant to cefoxitin, ciprofloxacin, clindamycin, erythromycin, tetracycline, thiamulin, trimethoprim, read-out: MIC MRSA (QA-11.7)): 0.063 µg/mL
- MIC ([36]; Table S3, read-out: MIC (μM) MRSA(QA-12.1)): 0.082 µM
- MIC ([36]; strain resistant to cefoxitin, gentamicin, kanamycin, rifampicin, streptomycin, sulfamethoxazole, tetracycline, read-out: MIC MRSA(QA-12.1)): 0.032 µg/mL
- IC50 [37]: 84 ± 20 nM
